Assay results as given in patent US20260000670A1 (priority 2022, published 2026).

Assays:
[1] = tested on: PBMCs from human heathy donors; assay: FluoroSpot T cell responses of PBMCs to AAV2 and AAV9 capsid peptide pools; format: cell-based; details: 100 nM dasatinib, 48 hrs, two donors
Description: FIGS. 12A-12B: Dasatinib treatment reduces T cell responses to AAV2 and AAV9 in vitro. PBMCs from human heathy donors were stimulated with peptide pools covering the AAV2 and AAV9 capsid sequences in the absence (black bars) or presence of 100 nM dasatinib (grey bars). After 48 hrs, IFN-γ- and TNF-α secreting cells were measured by Fluorospot. Mean Spot-Forming Cellsmedian+/−SD are shown for 1E6 PBMCs. Dotted line: Positivity threshold.
An important question was its potential effect on the cellular adaptive immune response. T cell responses to rAAV have been reported to induce the clearance of AAV-transduced cells and thereby decrease the duration of transgene expression. It is also known that T cell responses to AAV can mediate liver toxicities in the clinic. T cell responses to AAV can be measured in healthy human blood donors who have previously been infected with wild-type AAV. FluoroSpot assays reveal the proportions of IFN-y-and TNF-a-producing PBMCs induced upon incubation with pools of AAV capsid peptides. We used this assay to assess the response of PBMCs from two healthy blood donors to three different peptide pools covering the capsid sequences of AAV2 and AAV9 (FIGS. 12A-12B). […] Donor 2 had positive IFN-γ and/or TNF-α responses to AAV9 pools 2 and 3. All these responses were inhibited in the presence of 100 nM dasatinib.

C57B1/6 mice [2] = assay: transgene expression (hSEAP, hFIX) in serum following rAAV8 re-administration; format: in vivo
Description: (§1) FIG. 1. rAAV8 readministration in mice and Dasatinib treatment. C57B1/6 mice were intravenously dosed on study day 1 with a rAAV8 encoding the hSEAP (human secreted alkaline phosphatase) at the dose of 1E12 vg/kg. On study day 22, they received a second rAAV8 encoding hFIX (human Factor IX) at the dose of 5E13 vg/kg. […] Group 2 (immunized mice, n=10) received both rAAV8 injections. Group 3 mice (n=10) received the two rAAV8 injections and were treated by oral gavage with 50 mg/kg dasatinib twice per day for 7 days starting on the day of first rAAV8 dosing. Blood samples were collected one day before and every 7 days after the first rAAV8 treatment.
FIGS. 4A-4B. Dasatinib treatment allows transgene expression following rAAV re-administration. Serum was isolated from blood collected on study days 0, 8, 15, 21, 29 and 36 (FIG. 1). (FIG. 4A) Expression of the first transgene hSEAP was measured by chemiluminescence. (FIG. 4B) After AAV8 re-administration, expression of the second transgene hFactorIX was measured by ELISA. Mean concentrations are shown +/−SD.
To assess whether dasatinib could efficiently prevent anti-AAV antibody formation after rAAV administration and allow efficient re-administration of rAAV, a study was conducted in mice (FIG. 1). Groups of C57B1/6 mice were intravenously dosed with a first rAAV8 encoding hSEAP (human secreted alkaline phosphatase, under control of a CMV promoter) at the dose of 1E12vg/kg on study day 1. On study day 22, they were dosed with a second rAAV8 encoding hFIX (human Factor IX, under control of a CMV promoter) at the dose of 5E13 vg/kg. […]
Expression of the first transgene hSEAP and second transgene hFIX were measured in the serum samples from the experiment presented above (FIG. 1, Example 1). As expected, human SEAP was detected in the serum of mice from Groups 2 and 3, already 7 days after injection of AAV8-hSEAP on study day 1 (FIG. 4A). […] In contrast, hFIX expression was detected in the serum of all mice from the non-immunized Group 1 (mean: 2107 ng/ml) as well as in most mice from the dasatinib-treated Group 3 (average: 1398 ng/ml).

C57B1/6 mice [3] = assay: anti-AAV8 IgM and IgG titers (ELISA on empty AAV8 capsids) after rAAV8 administration in mice; format: in vivo
Description: as §1
(§2) FIGS. 2A-2C. Effects of dasatinib treatment on anti-AAV8 IgM titers. Serum was isolated from blood collected on study days 0, 8, 15, 21, 29 and 36 (FIG. 1) and anti-AA V8 IgM measured by ELISA, performed on immobilized empty AAV8 capsids. IgM antibody titers were determined by ELISA OD values of serial dilutions (1:10 and 7-step serial dilution 1:3). For the determination of mean background level, readouts were pooled from all mouse groups at day 0. The positivity threshold is represented by the dotted line. The kinetics of anti-AAV8 IgM antibody titers is shown for each mouse group (FIGS. 2A-2C). The empty circles represent titers under the threshold, and crossed circles represent titers above the threshold.
as §2, with “FIGS. 3A-3C.” for “FIGS. 2A-2C.”, “anti-AAV8 IgG” for “anti-AAV8 IgM”, “and anti-AAV8 IgG” for “and anti-AA V8 IgM”, “capsids. IgG” for “capsids. IgM”, “of anti-AA V8 IgG” for “of anti-AAV8 IgM”, “(FIGS. 3A-3C).” for “(FIGS. 2A-2C).”
To assess whether dasatinib could efficiently prevent anti-AAV antibody formation after rAAV administration and allow efficient re-administration of rAAV, a study was conducted in mice (FIG. 1). Groups of C57B1/6 mice were intravenously dosed with a first rAAV8 encoding hSEAP (human secreted alkaline phosphatase, under control of a CMV promoter) at the dose of 1E12vg/kg on study day 1. On study day 22, they were dosed with a second rAAV8 encoding hFIX (human Factor IX, under control of a CMV promoter) at the dose of 5E13 vg/kg. […] Group 3 mice were treated with Dasatinib at the dose of 50 mg/kg by oral gavage twice per day for 7 days, starting on the day of first rAAV8 dosing. […]

SMILES: Cc1nc(Nc2ncc(C(=O)Nc3c(C)cccc3Cl)s2)cc(N2CCN(CCO)CC2)n1 [dasatinib, N-(2-chloro-6-methylphenyl)-2-[[6-[4-(2-hydroxyethyl)-1-piperazinyl]-2-methyl-4-pyrimidinyl]amino]-5-thiazole carboxamide monohydrate]
- IFN-γ responses (secreting cells) to AAV9 peptide pools [1]: inhibited
- TNF-α responses (secreting cells) to AAV2 and AAV9 peptide pools [1]: inhibited
- human SEAP in serum (C57B1/6 mice [2]; Group 3, 7 days after AAV8-hSEAP on study day 1): detected
- hFIX expression in serum (average) (C57B1/6 mice [2]; Group 3, after AAV8-hFIX 5E13 vg/kg on day 22, dasatinib 50 mg/kg twice per day for 7 days at first rAAV8 dosing): 1398 ng/mL
- hFIX expression detected in serum (C57B1/6 mice [2]; Group 3, after second rAAV8 on day 22): in most mice
- anti-AAV8 IgG titers compared with immunized control Group 2 (C57B1/6 mice [3]; Group 3, 50 mg/kg oral gavage twice per day for 7 days): drastically reduced
- anti-AAV8 IgM in serum versus positivity threshold (C57B1/6 mice [3]; Group 3, 50 mg/kg oral gavage twice per day for 7 days from first rAAV8 dosing, until administration of second rAAV8 (day 22)): remained underthe IgM positivity threshold
- mice above the anti-AAV8 IgG positivity threshold (C57B1/6 mice [3]; Group 3, study day 21, 50 mg/kg oral twice per day for 7 days): 4/10
- anti-AAV8 IgG titers after rAAV8 re-administration (C57B1/6 mice [3]; day 36, two weeks after rAAV8 re-administration): comparable in all mouse groups
